The values below come from patent US8802597B2, “Herbicidal pyrimidines” (E I du Pont de Nemours and Company, priority 2003, dated 2014).

The structures appear in SMILES notation.

What all share (assay): Test C pre/postemergence
Holding throughout (assay type): in vivo
Conditions in all cases: Preemergence

Assay [1] concerns giant foxtail (Setaria faberii). The source says: (§1) Seeds or nutlets of plant species selected from bermudagrass (Cynodon dactylon), Surinam grass (Brachiaria decumbens), cocklebur (Xanthium strumarium), corn (Zea mays), crabgrass (Digitaria sanguinalis), woolly cupgrass (Eriochloa villosa), giant foxtail (Setaria faberii), goosegrass (Eleusine indica), johnsongrass (Sorghum halepense), kochia (Kochia scoparia), lambsquarters (Chenopodium album), morningglory (Ipomoea coccinea), eastern black nightshade (Solanum ptycanthum), yellow nutsedge (Cyperus esculentus), pigweed (Amaranthus retroflexus), common ragweed (Ambrosia elatior), soybean (Glycine max), common (oilseed) sunflower (Helianthus annuus), and velvetleaf (Abutilon theophrasti) were planted and treated preemergence with test chemicals formulated in a non-phytotoxic solvent mixture which included a surfactant.
(§2) At the same time, plants selected from these crop and weed species and also winter barley (Hordeum vulgare), blackgrass (Alopecurus myosuroides), canarygrass (Phalaris minor), chickweed (Stellaria media), downy brome (Bromus tectorum), green foxtail (Setaria viridis), Italian ryegrass (Lolium multiflorum), wheat (Triticum aestivum), wild oat (Avena fatua) and windgrass (Apera spica-venti) were treated with postemergence applications of some of the test chemicals formulated in the same manner. Plants ranged in height from 2 to 18 cm (1- to 4-leaf stage) for postemergence treatments. Plant species in the flooded paddy test consisted of rice (Oryza sativa), umbrella sedge (Cyperus difformis), duck salad (Heteranthera limosa) and barnyardgrass (Echinochloa crus-galli) grown to the 2-leaf stage for testing. Treated plants and controls were maintained in a greenhouse for 12 to 14 days, after which time all species were compared to controls and visually evaluated. Plant response ratings, summarized in Table C, are based on a scale of 0 to 100 where 0 is no effect and 100 is complete control. A dash (-) response means no test result.

In assay [2] the test system is goosegrass (Eleusine indica).
Text: as §1, §2

The subject of assay [3] is lambsquarters (Chenopodium album).
Text: as §1, §2

Assay [4] deals with velvetleaf (Abutilon theophrasti).
Text: as §1, §2

[5] abbreviates: 62 g ai/ha, scale 0 to 100, 0 no effect, 100 complete control.

On to `Nc1nc(C2CC2)nc(C=O)c1Br` [Compound 26], for which the pest or weed control at 62 g/ha in assay [1] (Setaria faberi, pre-emergence, 62 g ai/ha, scale 0 to 100, 0 no effect, 100 complete control, read-out: Plant response rating, Foxtail, Giant) worked out at 0%; in assay [2] (Eleusine indica, pre-emergence, 62 g ai/ha, scale 0 to 100, 0 no effect, 100 complete control, read-out: Plant response rating, Goosegrass) it was 0%; in assay [3] (Chenopodium album, pre-emergence, 62 g ai/ha, scale 0 to 100, 0 no effect, 100 complete control, read-out: Plant response rating, Lambsquarters), 10%; in assay [4] (Abutilon theophrasti, pre-emergence, 62 g ai/ha, scale 0 to 100, 0 no effect, 100 complete control, read-out: Plant response rating, Velvetleaf) it was 0%. Besides, the pest or weed control at 125 g/ha in assay [1] (Setaria faberi, pre-emergence, 125 g ai/ha, scale 0 to 100, read-out: Plant response rating, Foxtail, Giant) was 0%; in assay [2] (Eleusine indica, pre-emergence, 125 g ai/ha, scale 0 to 100, read-out: Plant response rating, Goosegrass), 0%; in assay [4] (Abutilon theophrasti, pre-emergence, 125 g ai/ha, scale 0 to 100, read-out: Plant response rating, Velvetleaf) it was 10%. In addition, the pest or weed control at 250 g/ha amounted to 0% in assay [1] (Setaria faberi, pre-emergence, 250 g ai/ha, scale 0 to 100, read-out: Plant response rating, Foxtail, Giant); 0% in assay [2] (Eleusine indica, pre-emergence, 250 g ai/ha, scale 0 to 100, read-out: Plant response rating, Goosegrass); 90% in assay [4] (Abutilon theophrasti, pre-emergence, 250 g ai/ha, scale 0 to 100, read-out: Plant response rating, Velvetleaf). Moreover, the pest or weed control at 500 g/ha in assay [1] (Setaria faberi, pre-emergence, 500 g ai/ha, scale 0 to 100, read-out: Plant response rating, Foxtail, Giant) was determined as 10%; in assay [2] (Eleusine indica, pre-emergence, 500 g ai/ha, scale 0 to 100, read-out: Plant response rating, Goosegrass), 0%; in assay [3] (Chenopodium album, pre-emergence, 500 g ai/ha, scale 0 to 100, read-out: Plant response rating, Lambsquarters), 90%; in assay [4] (Abutilon theophrasti, pre-emergence, 500 g ai/ha, scale 0 to 100, read-out: Plant response rating, Velvetleaf), 90%.

As for `CCOC(=O)Cc1nc(C2CC2)nc(N=CN(C)C)c1Br` [Compound 33], the “Plant response rating, Foxtail, Giant” value in assay [1] (setting [5]) is listed as 0; in assay [1] (125 g ai/ha, scale 0 to 100), 10; in assay [1] (250 g ai/ha, scale 0 to 100), 50; in assay [1] (500 g ai/ha, scale 0 to 100), 50. Also, the “Plant response rating, Goosegrass” value in assay [2] (setting [5]) is on record as 0; in assay [2] (125 g ai/ha, scale 0 to 100), 0; in assay [2] (250 g ai/ha, scale 0 to 100), 0; in assay [2] (500 g ai/ha, scale 0 to 100), 0. The “Plant response rating, Lambsquarters” value in assay [3] (250 g ai/ha, scale 0 to 100) stood at 85. Moreover, the “Plant response rating, Velvetleaf” value in assay [4] (setting [5]) came to 0; in assay [4] (125 g ai/ha, scale 0 to 100), 20; in assay [4] (250 g ai/ha, scale 0 to 100), 60; in assay [4] (500 g ai/ha, scale 0 to 100), 85.
